Blank lines part the entries; values can stand above or below the molecule they belong to.
Key:
Vero cells = assay: Cytotoxicity, Vero cells, Alamar Blue; type: cell-based; details: 25 μM, 20 hours
Experimental: An Assay Method for Cytotoxicity
The Vero cells were sown on a 96-well plate and then cultured overnight. The culture supernatant was removed, and 200 μl of 2% FBS-DMEM comprising 25 μM of the test compound was added. In this case, a substance to which 2% FBS-DMEM not comprising any test compound had been added was determined as a control. These cells were incubated in the presence of 5% CO2 at 37° C. for 20 hours. Alamar Blue (20 μl) was added to the cells, and cells were incubated for about 6 hours until the color of the control changed. The ratio of the absorbance was assayed using a microplate reader for absorption, and the value relative to the control was determined to be the ratio of living cells.

HSV-1 protease = target: T1, HSV-1 protease (Human herpesvirus 1, UniProt P10210); assay: Enzymatic assay for HSV-1 protease (assembly) inhibitor, fluorescence polarization; type: biochemical; details: read-out: HSV-1 Enzyme inhibition IC50
T1 construct: 6xHis (N); made in house; host or cells: baculovirus expression system
T1 sequence (P10210 1-247): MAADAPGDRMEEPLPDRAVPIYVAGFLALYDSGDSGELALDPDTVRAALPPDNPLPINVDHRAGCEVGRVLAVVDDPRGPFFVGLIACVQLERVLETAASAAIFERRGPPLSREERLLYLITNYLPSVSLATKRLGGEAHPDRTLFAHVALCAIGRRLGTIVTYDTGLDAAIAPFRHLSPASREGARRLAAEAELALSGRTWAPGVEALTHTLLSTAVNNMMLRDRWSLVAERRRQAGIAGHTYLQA
Summary of the method: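 His6-tagged HSV-1 UL26 protease, baculovirus-expressed, preincubated 30 min at RT with compound in 1 M citrate/phosphate buffer pH 7.4 with 20% glycerol and 2 mM TCEP. A biotin-HTYLQA*SERFRIK-DTAF substrate was then cleaved for 60 min at RT, stopped with avidin, and read by fluorescence polarization versus no-inhibitor control.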

HSV-1 = assay: Antiviral activity, HSV-1 in Vero cells, plaque method; type: cell-based; details: Human alphaherpesvirus 1, 20 hours, 90% inhibition of plaque formation
Summary of the method: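 HSV-1 (50,000 pfu in 2% FBS-DMEM) was added to Vero cells and removed, then the compound was applied in 2% FBS-DMEM for 20 h at 37° C, 5% CO2. After a freeze-thaw, virus yield in the medium was titred by plaque assay. EC90 is the concentration giving 90% plaque reduction versus the compound-free control.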

Structure (SMILES): Cc1c(NC(=O)OC(C)(C)C)ccc2nc(N[C@H](C(=O)NCc3cccnc3)C(C)(C)C)oc(=O)c12 [Compound No.33, (2-{2,2-dimethyl-1S-[(pyridin-3-ylmethyl)-carbamoyl]-propylamino}-5-methyl-4-oxo-4H-benzo[d][1,3]oxazin-6-yl)-carbamic acid tert-butyl ester]
Cell viability (% of control) (Vero cells): 105.0%
IC50 (HSV-1 protease): 10.1 µM
EC90 (HSV-1): 13 µM

Structure (SMILES): Cc1c(NC(=O)OC(C)(C)C)ccc2nc(NC(C)(C)C(=O)NCc3ccncc3)oc(=O)c12 [Compound No.34, (5-Methyl-2-{1-methyl-1-[(pyridin-4-ylmethyl)-carbamoyl]-ethylamino}-4-oxo-4H-benzo[d][1,3]oxazin-6-yl)-carbamic acid tert-butyl ester]
Cell viability (% of control) (Vero cells): 102.0%
IC50 (HSV-1 protease): 1.6 µM
EC90 (HSV-1): > 25 µM

Structure (SMILES): Cc1c(NC(=O)OC(C)(C)C)ccc2nc(NC(C)(C)C(=O)NCCc3ccccn3)oc(=O)c12 [Compound No.35, {5-Methyl-2-[1-methyl-1-(2-pyridin-2-ylethylcarbamoyl)-ethylamino]-4-oxo-4H-benzo[d][1,3]oxazin-6-yl}-carbamic acid tert-butyl ester]
Cell viability (% of control) (Vero cells): 110.0%
IC50 (HSV-1 protease): 1.6 µM
EC90 (HSV-1): > 25 µM

Structure (SMILES): Cc1c(NC(=O)OC(C)(C)C)ccc2nc(N[C@@H](CC(C)C)C(=O)NCc3ccccn3)oc(=O)c12 [Compound No.36, (5-Methyl-2-{3-methyl-1S-[(pyridin-2-ylmethyl)-carbamoyl]-butylamino}-4-oxo-4H-benzo[d][1,3]oxazin-6-yl)-carbamic acid tert-butyl ester]
Cell viability (% of control) (Vero cells): 110.0%
IC50 (HSV-1 protease): 5.8 µM
EC90 (HSV-1): 21.5 µM

Structure (SMILES): Cc1c(NC(=O)OC(C)(C)C)ccc2nc(N[C@@H](CC(C)C)C(=O)NCc3cccnc3)oc(=O)c12 [Compound No.37, (5-Methyl-2-{3-methyl-1S-[(pyridin-3-ylmethyl)-carbamoyl]-butylamino}-4-oxo-4H-benzo[d][1,3]oxazin-6-yl)-carbamic acid tert-butyl ester]
Cell viability (% of control) (Vero cells): 105.0%
IC50 (HSV-1 protease): 4.6 µM
EC90 (HSV-1): 15 µM

Structure (SMILES): Cc1c(NC(=O)OC(C)(C)C)ccc2nc(N[C@@H](CC(C)C)C(=O)NCc3ccncc3)oc(=O)c12 [Compound No.38, (5-Methyl-2-{3-methyl-1S-[(pyridin-4-ylmethyl)-carbamoyl]-butylamino}-4-oxo-4H-benzo[d][1,3]oxazin-6-yl)-carbamic acid tert-butyl ester]
Cell viability (% of control) (Vero cells): 105.0%
IC50 (HSV-1 protease): 10.1 µM
EC90 (HSV-1): > 25 µM

Structure (SMILES): Cc1c(NC(=O)OC(C)(C)C)ccc2nc(N[C@@H](CCc3ccccc3)C(=O)NCc3cccnc3)oc(=O)c12 [Compound No.40, (5-Methyl-4-oxo-2-{3-phenyl-1S-[(pyridin-3-ylmethyl)-carbamoyl]-propylamino}-4H-benzo[d][1,3]oxazin-6-yl)-carbamic acid tert-butyl ester]
Cell viability (% of control) (Vero cells): 100.0%
IC50 (HSV-1 protease): > 20 µM
EC90 (HSV-1): > 25 µM

Structure (SMILES): Cc1c(NC(=O)OC(C)(C)C)ccc2nc(N[C@@H](CCc3ccccc3)C(=O)NCc3ccncc3)oc(=O)c12 [Compound No.41, (5-Methyl-4-oxo-2-{3-phenyl-1S-[(pyridin-4-ylmethyl)-carbamoyl]-propylamino}-4H-benzo[d][1,3]oxazin-6-yl)-carbamic acid tert-butyl ester]
Cell viability (% of control) (Vero cells): 101.0%
IC50 (HSV-1 protease): 5.6 µM
EC90 (HSV-1): > 25 µM

Structure (SMILES): Cc1c(NC(=O)OC(C)(C)C)ccc2nc(N[C@H](C(=O)N(C)CCc3ccccn3)C(C)(C)C)oc(=O)c12 [Compound No.44, (2-{2,2-dimethyl-1S-[methyl-(2-pyridin-2-yl-ethyl)-carbamoyl]-propylamino}-5-methyl-4-oxo-4H-benzo[d][1,3]oxazin-6-yl)-carbamic acid tert-butyl ester]
Cell viability (% of control) (Vero cells): 66.2%
IC50 (HSV-1 protease): > 20 µM
EC90 (HSV-1): 5.9 µM

Structure (SMILES): Cc1c(NC(=O)OC(C)(C)C)ccc2nc(N[C@H](C(=O)N(C)CCc3ccccn3)C(C)C)oc(=O)c12 [Compound No.45, (5-Methyl-2-{2-methyl-1S-[methyl-(2-pyridin-2-yl-ethyl)-carbamoyl]-propylamino}-4-oxo-4H-benzo[d][1,3]oxazin-6-yl)-carbamic acid tert-butyl ester]
Cell viability (% of control) (Vero cells): 107.0%
IC50 (HSV-1 protease): 1.7 µM
EC90 (HSV-1): 6.6 µM

Structure (SMILES): Cc1c(NC(=O)OC(C)(C)C)ccc2nc(N[C@@H](CC(C)C)C(=O)N(C)CCc3ccccn3)oc(=O)c12 [Compound No.46, (5-Methyl-2-{3-methyl-1S-[methyl-(2-pyridin-2-yl-ethyl)-carbamoyl]-butylamino}-4-oxo-4H-benzo[d][1,3]oxazin-6-yl)-carbamic acid tert-butyl ester]
Cell viability (% of control) (Vero cells): 80.1%
IC50 (HSV-1 protease): 1.7 µM
EC90 (HSV-1): 4.9 µM

Structure (SMILES): Cc1c(NC(=O)OC(C)(C)C)ccc2nc(N[C@@H](CC3CCCCC3)C(=O)N(C)CCc3ccccn3)oc(=O)c12 [Compound No.47, (2-{2-cyclohexyl-1S-[methyl-(2-pyridin-2-yl-ethyl)-carbamoyl]-ethylamino}-5-methyl-4-oxo-4H-benzo[d][1,3]oxazin-6-yl)-carbamic acid tert-butyl ester]
Cell viability (% of control) (Vero cells): 36.7%
IC50 (HSV-1 protease): 2.9 µM
EC90 (HSV-1): < 3.2 µM

Structure (SMILES): Cc1c(NC(=O)OC(C)(C)C)ccc2nc(N[C@H](C(=O)N(C)CCc3ccncc3)C(C)(C)C)oc(=O)c12 [Compound No.52, (2-{2,2-Dimethyl-1S-[methyl-(2-pyridin-4-yl-ethyl)-carbamoyl]-propylamino}-5-methyl-4-oxo-4H-benzo[d][1,3]oxazin-6-yl)-carbamic acid tert-butyl ester]
Cell viability (% of control) (Vero cells): 64.5%
IC50 (HSV-1 protease): 49 µM
EC90 (HSV-1): 6 µM

Structure (SMILES): Cc1c(NC(=O)OC(C)(C)C)ccc2nc(N[C@H](C(=O)N(C)CCc3ccncc3)C(C)C)oc(=O)c12 [Compound No.53, (5-Methyl-2-{2-methyl-1S-[methyl-(2-pyridin-4-yl-ethyl)-carbamoyl]-propylamino}-4-oxo-4H-benzo[d][1,3]oxazin-6-yl)-carbamic acid tert-butyl ester]
Cell viability (% of control) (Vero cells): 106.0%
IC50 (HSV-1 protease): 2.7 µM
EC90 (HSV-1): 6.1 µM

Stronger by IC50 (HSV-1 protease), values ahead:

IC50 (HSV-1 protease): 1.5 µM
EC90 (HSV-1): 12.4 µM
Structure (SMILES): Cc1c(NC(=O)OC(C)(C)C)ccc2nc(N[C@@H](CCc3ccccc3)C(=O)NCc3ccccn3)oc(=O)c12 [Compound No.39, (5-Methyl-4-oxo-2-{3-phenyl-1S-[(pyridin-2-ylmethyl)-carbamoyl]-propylamino}-4H-benzo[d][1,3]oxazin-6-yl)-carbamic acid tert-butyl ester]
Cell viability (% of control) (Vero cells): 90.1%

IC50 (HSV-1 protease): 1 µM
EC90 (HSV-1): 10.7 µM
Structure (SMILES): Cc1c(NC(=O)OC(C)(C)C)ccc2nc(N[C@@H](CCc3ccccc3)C(=O)NCCc3ccccn3)oc(=O)c12 [Compound No.42, {5-Methyl-4-oxo-2-[3-phenyl-1S-(2-pyridin-2-yl-ethylcarbamoyl)-propylamino]-4H-benzo[d][1,3]oxazin-6-yl}-carbamic acid tert-butyl ester]
Cell viability (% of control) (Vero cells): 83.0%

IC50 (HSV-1 protease): 0.7 µM
EC90 (HSV-1): 9.1 µM
Structure (SMILES): Cc1c(NC(=O)OC(C)(C)C)ccc2nc(N[C@@H](C)C(=O)N(C)CCc3ccccn3)oc(=O)c12 [Compound No.43, (5-Methyl-2-{1S-[methyl-(2-pyridin-2-yl-ethyl)-carbamoyl]-ethylamino}-4-oxo-4H-benzo[d][1,3]oxazin-6-yl)-carbamic acid tert-butyl ester]
Cell viability (% of control) (Vero cells): 104.0%

IC50 (HSV-1 protease): 1.2 µM
EC90 (HSV-1): 3.7 µM
Structure (SMILES): Cc1c(NC(=O)OC(C)(C)C)ccc2nc(N[C@@H](CCc3ccccc3)C(=O)N(C)CCc3ccccn3)oc(=O)c12 [Compound No.48, (5-Methyl-2-{1S-[methyl-(2-pyridin-2-yl-ethyl)-carbamoyl]-3-phenyl-propylamino}-4-oxo-4H-benzo[d][1,3]oxazin-6-yl)-carbamic acid tert-butyl ester]
Cell viability (% of control) (Vero cells): 44.2%

IC50 (HSV-1 protease): 0.9 µM
EC90 (HSV-1): < 3.2 µM
Structure (SMILES): Cc1c(NC(=O)OC(C)(C)C)ccc2nc(N[C@@H](Cc3ccccc3)C(=O)N(C)CCc3ccncc3)oc(=O)c12 [Compound No.49, (5-Methyl-2-{1S-[methyl-(2-pyridin-4-yl-ethyl)-carbamoyl]-2-phenyl-ethylamino}-4-oxo-4H-benzo[d][1,3]oxazin-6-yl)-carbamic acid tert-butyl ester]
Cell viability (% of control) (Vero cells): 76.0%

IC50 (HSV-1 protease): 0.9 µM
EC90 (HSV-1): < 3.2 µM
Structure (SMILES): Cc1c(NC(=O)OC(C)(C)C)ccc2nc(N[C@@H](C)C(=O)N(C)CCc3ccncc3)oc(=O)c12 [Compound No.50, (5-Methyl-2-{1S-[methyl-(2-pyridin-4-yl-ethyl)-carbamoyl]-ethylamino}-4-oxo-4H-benzo[d][1,3]oxazin-6-yl)-carbamic acid tert-butyl ester]
Cell viability (% of control) (Vero cells): 106.0%

IC50 (HSV-1 protease): 0.6 µM
EC90 (HSV-1): 9.3 µM
Structure (SMILES): Cc1c(NC(=O)OC(C)(C)C)ccc2nc(NC(C)(C)C(=O)N(C)CCc3ccncc3)oc(=O)c12 [Compound No.51, (5-Methyl-2-{1-methyl-1-[methyl-(2-pyridin-4-yl-ethyl)-carbamoyl]-ethylamino}-4-oxo-4H-benzo[d][1,3]oxazin-6-yl)-carbamic acid tert-butyl ester]
Cell viability (% of control) (Vero cells): 106.0%

Source: patent US20040116420A1 (priority 2001, published 2004)
